In US20210069152A1, “METHODS FOR TREATING HETEROTOPIC OSSIFICATION” (Clementia Pharmaceuticals Inc., priority 2016, published 2021):

Key:
[1] = test system: subjects with fibrodysplasia ossificans progressiva; experiment: Safety outcomes, double-blind study; type: in vivo, human
Protocol: (§1) Sixty-seven flare-ups have been treated: 40 with double-blind medication (10 subjects received placebo, 9 subjects received palovarotene at 5 mg once daily for 2 weeks followed by 2.5 mg once daily for 4 weeks, and 21 subjects received palovarotene at 10 mg once daily for 2 weeks followed by 5 mg once daily for 4 weeks); and 27 received open-label palovarotene. Sixty-one of these 67 flare-ups have available results from post-baseline imaging (by low-dose CT scan). The results are summarized for the respective studies in FIGS. 1 and 2.
The most frequently reported adverse events overall were dry skin (58.8%) and dry lips (32.4%).

[2] = test system: subjects with fibrodysplasia ossificans progressiva; experiment: Safety outcomes, open-label study; type: in vivo, human
Protocol: as §1
The findings were similar in the open-label study (described in Example 1) in which the overall incidence of adverse events was 92.3% (12 of 13 subjects). Retinoid-associated adverse events were reported by all subjects; most were mild (69.2%) in severity. The most frequently reported adverse events overall were dry skin (69.2%) and pruritus (61.5%).

wild-type mice = experiment: Growth plate assessment in wild-type mice; type: in vivo
Protocol: (§2) The effects of palovarotene on the growth plates were assessed.

growth plate = experiment: Growth plate assessment by knee and hand/wrist radiographs in children; type: in vivo, human; conditions: acute 6-week treatment
Prrx1-R206H mice = experiment: Growth plate assessment in Prrx1-R206H mice; type: in vivo
Protocol: as §2

[3] = test system: heterotopic ossification in subjects with fibrodysplasia ossificans progressiva; experiment: Volume of new heterotopic ossification at flare-up site (x-ray / low-dose CT) in FOP patients, adult cohort dosing regimens; type: in vivo, human; conditions: for reduction in mean bone volume formation (new HO) relative to Placebo/Untreated group: 12 weeks
Protocol: FIGS. 3A and 3B are graphs showing a comparison of the volume of new heterotopic ossification between (i) episodic treatment of FOP patients (i.e., treatment during non-quiescent periods only and (ii) the treatment regimens of the present invention that include treatment during both quiescent and non-quiescent periods. Patients in the “Placebo/Untreated” group were treated with a sugar pill or untreated (28 patients). Patients in the “PVO Non-Quiescent Only” group were treated with either 20 mg palovarotene (PVO) daily for 28 days followed by 10 mg PVO daily for 56 days (47 patients) or 10 mg PVO daily for 14 days followed by 5 mg PVO daily for 28 days (9 patients). Patients in the “PVO Quiescent/Non-Quiescent” group were treated with 5 mg PVO daily during the quiescent period and with 20 mg PVO daily for 28 days (NQ loading dose) followed by 10 mg PVO daily for 56 days (NQ maintenance dose) following initiation of flare-up symptoms, i.e., initiation of a non-quiescent period (10 patients).
Adult cohort includes individuals who have achieved at least 90% skeletal maturity irrespective of age. Individuals in the adult cohort received palovarotene (neutral form) at 5 mg once daily as a non-flare-up based treatment (e.g., during periods when symptoms of a flare-up were not present). […]
Assessment of new HO at the flare-up site was evaluated using x-ray, and low-dose CT imaging was employed as a secondary imaging assessment. […] In order to ensure consistency and standardization, images were evaluated for the presence or absence of HO using two independent procedures, both of which were blinded to treatment group assignment. In the Primary Read process, two musculoskeletal radiologists independently compared baseline and post-baseline images within a single imaging modality.
The volume of new heterotopic ossification (HO), HO that occurred during the non-quiescent period, was assessed 12 weeks following initiation of treatment for the “Non-Quiescent Only” treatment group and 12 weeks after initiation of the 20 mg/day NQ loading dose in the “Quiescent/Non-Quiescent” treatment group.

[4] = test system: heterotopic ossification in subjects with fibrodysplasia ossificans progressiva; experiment: Flare-up outcomes, open-label study (new HO by low-dose CT scan); type: in vivo, human; conditions: open-label extension study, 27 flare-ups treated with open-label palovarotene
Protocol: as §1

Structure (SMILES): CC1(C)CCC(C)(C)c2cc(Cn3cccn3)c(/C=C/c3ccc(C(=O)O)cc3)cc21 [palovarotene, 4-[(1E)-2-[5,6,7,8-Tetrahydro-5,5,8,8-tetramethyl-3-(1H-pyrazol-1-ylmethyl)-2-naphthalenyl]-ethenyl]-benzoic acid]
- dose reductions or discontinuations of treatment [1]: no dose reductions or discontinuations of treatment
- incidence and severity of retinoid-associated adverse events, trend [1]: dose-related increases in the incidence and severity
- severity of most retinoid-associated adverse events [1]: mild or moderate
- trend of adverse event incidence across the treatment groups [1]: dose-related increases across the treatment groups
- overall incidence of adverse events ([1]; 33 of 34 subjects with safety data, all treatment groups (placebo, 5/2.5 mg, 10/5 mg)): 97.1%
- incidence of dry lips ([1]; overall): 32.4%
- incidence of dry skin ([1]; overall): 58.8%
- dose reductions or discontinuations of treatment [2]: no dose reductions or discontinuations of treatment
- retinoid-associated adverse events mild in severity [2]: 69.2%
- subjects reporting retinoid-associated adverse events [2]: all subjects
- overall incidence of adverse events ([2]; 12 of 13 subjects): 92.3%
- incidence of dry skin ([2]; overall): 69.2%
- incidence of pruritus ([2]; overall): 61.5%
- effect on growth plate (wild-type mice): Adverse effects
- adverse effects on the growth plate (growth plate): no adverse effects on the growth plate
- effect on long bone growth, growth plate organization and matrix deposition (Prrx1-R206H mice): preserved long bone growth and near-normalized growth plate organization and matrix deposition
- effect on histologic growth plate abnormalities and long bone length (Prrx1-R206H mice; daily dosing): reversed histologic growth plate abnormalities and shortened long bones
- reduction in mean bone volume formation (new HO) relative to Placebo/Untreated group ([3]; Non-Quiescent Only group (both doses pooled)): 75%
- volume of new heterotopic ossification ([3]; PVO Quiescent/Non-Quiescent: 5 mg daily quiescent, 20 mg daily 28 days then 10 mg daily 56 days after flare-up (10 patients), 12 weeks after start of NQ loading dose): 212 mm^3
- reduction in mean bone volume formation (new HO) relative to Placebo/Untreated group ([3]; Quiescent/Non-Quiescent group): 97%
- number of flare-ups with new HO [4]: four
